Test results published in publication PMC9202104 (BMC Biology, 2022).
Like-named read-outs stand apart in the source and are kept apart here.

Tests used:
[1] = test system: ZIKV infection; settings: read-out: IC50 against ZIKV infection (reported); cited from earlier work
[2] = test system: ZIKV human strain PAN2016 (2016/Panama); assay: Plaque assay, inhibition of ZIKV infection (strain PAN2016); settings: for SI (CC50/IC50): CC50 Vero E6 / IC50 ZIKV PAN2016
Procedure: (§1) After removal of the unbound compounds by centrifugation (after addition of 3% PEG-6000), ZIKV was incubated with Vero E6 cells in 24-well plates at 37°C for 1 h. The cells were then washed with PBS, overlaid with DMEM containing 1% carboxymethyl cellulose and 2% FBS, and cultured at 37°C for 4–5 days, followed by being stained with 0.5% crystal violet. […] Plaques in each well were calculated, and IC50 of compounds for each compound was calculated using the CalcuSyn computer program.

[3] = test system: ZIKV human strain FLR; assay: Plaque assay, inhibition of ZIKV infection (strain FLR); assay type: cell-based; settings: Zika virus, Vero C1008; plaque assay, Vero E6 cells, human strain; read-out: IC50 FLR
Procedure: as §1

[4] = test system: 8 human ZIKV strains (PAN2016, R116265, PAN2015, FLR, R103451, PRVABC59, PLCal_ZV, IbH 30656); assay: microbe, parasite or virus in culture; assay type: cell-based; settings: Zika virus, read-out: Average IC50 (human strains)
Procedure: as §1

[5] = test system: ZIKV human strain PLCal_ZV; assay: Plaque assay, inhibition of ZIKV infection (strain PLCal_ZV); assay type: cell-based; settings: Zika virus, Vero C1008; plaque assay, Vero E6 cells, human strain; read-out: IC50 PLCal_ZV
Procedure: as §1

[6] = test system: ZIKV human strain R116265; assay: Plaque assay, inhibition of ZIKV infection (strain R116265); assay type: cell-based; settings: Zika virus, Vero C1008, Vero E6 cells
Procedure: as §1

[7] = test system: ZIKV mosquito strain MEX 2-81; assay: Plaque assay, inhibition of ZIKV infection (strain MEX 2-81); assay type: cell-based; settings: Zika virus, Vero C1008; plaque assay, Vero E6 cells, mosquito strain; read-out: IC50 MEX 2-81
Procedure: as §1

[8] = test system: ZIKV human strain PAN2015; assay: Plaque assay, inhibition of ZIKV infection (strain PAN2015); assay type: cell-based; settings: Zika virus, Vero C1008, Vero E6 cells
Procedure: as §1

[9] = test system: ZIKV human strain PRVABC59; assay: Plaque assay, inhibition of ZIKV infection (strain PRVABC59); assay type: cell-based; settings: Zika virus, Vero C1008; plaque assay, Vero E6 cells, human strain; read-out: IC50 PRVABC59
Procedure: as §1

[10] = test system: ZIKV human strain IbH 30656; assay: Plaque assay, inhibition of ZIKV infection (strain IbH 30656); assay type: cell-based; settings: Zika virus, Vero C1008; plaque assay, Vero E6 cells, human strain; read-out: IC50 IbH 30656
Procedure: as §1

[11] = test system: ZIKV human strain R103451; assay: Plaque assay, inhibition of ZIKV infection (strain R103451); assay type: cell-based; settings: Zika virus, Vero C1008; plaque assay, Vero E6 cells, human strain; read-out: IC50 R103451
Procedure: as §1

[12] = Cytotoxicity, Cell Counting Kit-8, Vero E6 cells; assay type: cell-based; settings: African green monkey
Procedure: (§2) Briefly, compounds at 2-fold serial dilutions were added to the respective cells (2.0×10^4/well) pre-seeded in 96-well plates. The cells were cultured at 37°C in the presence of 5% CO2 for 3 days, […] incubated with CCK8 solution, followed by measurement of absorbance at 450 nm (A450 value), using a microplate reader (Infinite F200PRO, Tecan, Morrisville, NC, USA). CC50 of compounds was calculated using the CalcuSyn program.

[13] = test system: Vero E6 cells; assay: Cytotoxicity, Cell Counting Kit-8, Vero E6 cells; assay type: cell-based; settings: African green monkey, 3 days
Procedure: as §2

[14] = test system: ZIKV rhesus macaque strain MR 766; assay: Plaque assay, inhibition of ZIKV infection (strain MR 766); assay type: cell-based; settings: Zika virus, Vero C1008; plaque assay, Vero E6 cells, rhesus strain; read-out: IC50 MR 766
Procedure: as §1

[15] = Zika virus, Vero C1008, in Homo sapiens, read-out: IC50 against infection of ZIKV PAN2016, plaque assay, Vero E6 cells
[16] = read-out: IC50 against infection of ZIKV PAN2016, plaque assay, Vero E6 cells

SMILES | IC50 [1] | IC50 [2, 15] | IC50 [2, 16] | IC50 [3] | IC50 [4] | IC50 [5] | IC50 [6] | IC50 [7] | IC50 [8] | IC50 [9] | IC50 [10] | IC50 [11] | CC50 at 3 days ([12]; CC50 Vero E6) | CC50 [13] | IC50 [14] | SI (CC50/IC50) [2] | CC50 at 3 days ([12]; Vero E6 cells, CCK8, 3 days, read-out: CC50 Vero E6)
CC(=O)Oc1ccccc1C(=O)Nc1ncc([N+](=O)[O-])s1 [Nitazoxanide] | 15.9 µM | – | – | – | – | – | – | – | – | – | – | – | – | – | – | – | –
Cc1cc2c(C(C)C)c(O)c(O)c3c2c(c1-c1c(C)cc2c(C(C)C)c(O)c(O)c4c2c1OC4N)OC3N (stereo not drawn) [ST069299] | – | 2.3 µM | 2.34 ± 0.06 µM | 3.3 µM | 3 µM | 4 µM | 2.6 µM | 3.9 µM | 2.3 µM | 3.3 µM | 2.5 µM | 3.9 µM | 25.9 µM | 25.9 ± 2.7 µM | 4.9 µM | – | –
Cc1cc2c(c(O)c1-c1c(C)cc3c(c1O)C(C=C1C(=O)NC(=O)NC1=O)C(=O)C(O)=C3C(C)C)C(C=C1C(=O)NC(=O)NC1=O)C(=O)C(O)=C2C(C)C (stereo not drawn) [ST004335] | – | 27.4 ± 2.5 µM | – | – | – | – | – | – | – | – | – | – | – | – | – | 2.7 | 73.9 ± 1.68 µM
Cc1cc2nc[nH]c2c(/N=C/c2c(O)c(O)c(C(C)C)c3cc(C)c(-c4c(C)cc5c(C(C)C)c(O)c(O)c(/C=N/c6c(C)c(C)cc7nc[nH]c67)c5c4O)c(O)c23)c1C [ST092971] | – | 5 µM | 4.98 ± 0.01 µM | 6.9 µM | 6.6 µM | 6.7 µM | 8 µM | 13.5 µM | 5 µM | 9.1 µM | 5.2 µM | 6.6 µM | 72.1 µM | 72.1 ± 1.91 µM | 5.2 µM | 14.48 | –
Cc1cc2c(c(O)c1-c1c(C)cc3c(c1O)/C(=C/NCc1cccnc1)C(=O)C(O)=C3C(C)C)/C(=C/NCc1cccnc1)C(=O)C(O)=C2C(C)C [ST005135] | – | 35 ± 2.86 µM | – | – | – | – | – | – | – | – | – | – | 104 ± 2.2 µM | – | – | 2.97 | –
